Assay [1] relates to HeLa. In words: Transfection efficiency of compound in delivering a plasmid bearing the sequence of luciferase gene under the dependence of human cytomegalo virus promoter into HeLa cells was evaluated; Active. The class given is functional, cell-based.
A further assay has as its system NIH3T3. The assay can be described thus: Transfection efficiency of compound in delivering a plasmid bearing the sequence of luciferase gene as ratio of nM of vector/ug of DNA in NIH3T3 cells. The assay is classed as functional, Mus musculus.
Assay [2] concerns HeLa. In words: Transfection efficiency of compound in delivering a plasmid bearing the sequence of luciferase gene as ratio of nM of vector/ug of DNA in HeLa cells. The class given is functional, Homo sapiens.
Assay [3] relates to HeLa. The assay can be described thus: Transfection efficiency of compound in delivering a plasmid bearing the sequence of luciferase gene under the dependence of human cytomegalo virus promoter into HeLa cells was evaluated; Inactive. The class given is functional, cell-based.

Activity calls are given as the source filed them. No cut-off for these calls is given here.

For `CCCCCCCCCCCCCCCCCCN(CCCCCCCCCCCCCCCCCC)C(=O)CCC(=O)OC[C@H]1O[C@H](OC)[C@H](OCCN)[C@@H](OCCN)[C@H]1OCCN`, the result with HeLa [1] was Active. For the same molecule, the Activity with NIH3T3 is reported as 12 (nM of vector) (ug of DNA)-1; in the assay on HeLa [2], 8 (nM of vector) (ug of DNA)-1.
Taken in the same sequence, the figures for `CCCCCCCCCCCCCCCCCCN(CCCCCCCCCCCCCCCCCC)C(=O)c1ccccc1C(=O)OC[C@H]1O[C@H](OC)[C@H](OCCN)[C@@H](OCCN)[C@H]1OCCN` were “Active”, 12 (nM of vector) (ug of DNA)-1 and 8 (nM of vector) (ug of DNA)-1.
For the molecule `CCCCCCCCCCCCCCCCCCN(CCCCCCCCCCCCCCCCCC)C(=O)c1ccccc1C(=O)OC[C@H]1O[C@H](OC)[C@H](OC(=O)CN)[C@@H](OC(=O)CN)[C@H]1OC(=O)CN`, in the assay with HeLa [3], the result was inactive.
The same measure, in the same setting: under `CCCCCCCCCCCCCCCCCCN(CCCCCCCCCCCCCCCCCC)C(=O)CCC(=O)OC[C@H]1O[C@H](OC)[C@H](OC(=O)CN)[C@@H](OC(=O)CN)[C@H]1OC(=O)CN` stands “inactive”.

Values taken from ChEMBL document CHEMBL1133205, “Synthesis and biological properties of new glycosidic cationic lipids for DNA delivery” (2000).
